Assay results from patent publication US20230372498A1, “PLK1 SELECTIVE DEGRADATION INDUCING COMPOUND” (UPPTHERA, priority 2020, published 2023).

Biological target: T1, PLK1 (Homo sapiens, UniProt P53350)
T1 construct: endogenous in cells; host or cells: HeLa
Test: PLK1 protein degradation in HeLa cells, Western blotting (PLK1/GAPDH ratio)
Format: cell-based
Details: 6 hours compound incubation; for Dmax: thymidine block and release, 10 points three-fold from 3 μM, PLK1 to GAPDH ratio, read-out: Dmax; for DC50: measured only if the grade of Dmax is A or B
Description: The HeLa cell line was purchased from Korea Cell Line Bank (KCLB), Seoul, Korea. The passage in cell culture was maintained at P115 to P125.
For cell culture, DMEM (Gibco, Cat. No. 1195-65; Lot. No. 2085318), FBS (Gibco, Cat. No. 16000-044; Lot. No. 2097593), Penicillin/Streptomycin (PS) (Gibco, Cat. No. 15140-122; Lot. No. 2058855), 100 mm^2 cell culture dish (SPL, Cat. No. 20100), 150 mm^2 cell culture dish (SPL, Cat. No. 20150), 12-well culture plate (SPL, Cat. No. 30012), PBS pH 7.4 (Gibco, Cat. No. 10010-023; Lot. No. 2085080), TrypLE™ Express (Gibco, Cat. No. 12605-010; Lot No. 2070638), Counting Chamber (Hematocytometer) (Hirschmann, Cat. No. 8100204), and 0.4% Trypan Blue Solution (DYNEBIO, Cat. No. CBT3710; Lot. No. 20190723) were used.
2×10^5 cells were seeded for each well of a 12-well plate (SPL), and the cells were cultured in the culture medium in a total volume of 2 ml.
The compounds of Examples were completely dissolved in DMSO and used in the experiment, and thymidine was completely dissolved in DW and used in the experiment. For thymidine block, the products were treated with 2 mM of thymidine (Sigma-Aldrich Cat. No. T9250-5G) and then incubated for 24 hours.
For release and chemical treatment, the medium was suctioned and washed 3 times with 1×PBS. Complete media was added, followed by incubation for 4 hours in a CO2 incubator. Each compound was diluted three folds from the highest concentration of 3 μM to the lowest concentration in 10 points and then incubated for 6 hours again.
For SDS-PAGE and Western blotting, 1×RIPA lysis buffer (Rockland, Cat. No. MB-030-0050; Lot no. 39751), 100× Protease Inhibitor Cocktail (Quartett, Cat. No. PPI1015; Lot no. PCO50038424), Pierce™ BCA protein assay kit (ThermoScientific, Cat. No. 23225; Lot no. UC276876), albumin standard (ThermoScientific, Cat. No. 23209; Lot no. UB269561), 4-15% Mini-PROTEAN TGX stain-free gel (Bio-rad, Cat. No. 4568085; Lot no. L007041B), 10× Tris/Glycine/SDS buffer (Bio-rad, Cat. No. 1610732; Lot no. 10000044375B); 10×TBS (Bio-rad, Cat. No. 1706435; Lot no. 1000045140B), 10% Tween 20 (Cat. No. 1610781; Lot no. L004152B), Color protein standard broad range (NEB, Cat. No. P7719S; Lot no. 10040349), 4× Laemmli sample buffer (Bio-rad, Cat. No. 1610747; Lot no. L004133B), β-mercaptoethanol (Sigma-Aldrich, Cat. No. M3148; Lot no. 60-24-2), SuperBlock™ T20 (TBS) blocking buffer (ThermoScientific, Cat. No. 37536; Lot no. UC282578), 1M sodium azide solution (Sigma-Aldrich, Cat. No. 08591-1 mL-F; Lot no. BCBV4989), α-Rabbit pAb to Ms IgG (abcam, Cat. No. ab97046; Lot no. GR3252115-1), α-Goat pAb to Rb IgG (CST, Cat. No. 7074S; Lot no. 28), α-GAPDH (abcam, Cat. No. ab8245; Lot no. GR3275542-2), α-Plk1 (CST, Cat. No. 208G4), α-BRD4 (CST, Cat. No. 13440S), ECL™ Prime western blotting reagents (GE Healthcare, Cat. No. RPN2232; Lot no. 17001655), Ponceau S solution (Sigma-Aldrich, Cat. No. P7170; Lot no. SLBV4112), Difco™ Skim milk (BD, Cat. No. 232100; Lot no. 8346795), and iBlot® 2 NC Regular stacks (Invitrogen, Cat. No. IB323001; Lot no. 2NR110619-02) were used.
For cell harvesting, the cells were first separated from the plate using trypsin and then washed with the medium and PBS. Specifically, the medium was suctioned off and washed with 1 mL of PBS, and PBS was suctioned off. The cells were treated with 0.5 mL TrypLE™ Express at 37° C. for 7 minutes to separate the cells, and then 0.5 mL of complete medium was added to collect 1 mL of cell culture solution. Then, 1 mL of the cell collection solution was centrifuged at 8,000 rpm for 120 seconds, and the supernatant was removed. After washing with 0.2 mL of PBS, the PBS was removed.
For cell lysis, a lysis buffer was added and cell debris was removed to obtain a cell lysate. Specifically, the cells were treated with 70 μL of 1×RIPA buffer containing a protease inhibitor and incubated for 30 minutes on ice. Then, the cells were centrifuged at 4° C. and 15,000 rpm for 10 minutes to obtain a cell lysate. […]

T1 sequence (P53350 whole entry): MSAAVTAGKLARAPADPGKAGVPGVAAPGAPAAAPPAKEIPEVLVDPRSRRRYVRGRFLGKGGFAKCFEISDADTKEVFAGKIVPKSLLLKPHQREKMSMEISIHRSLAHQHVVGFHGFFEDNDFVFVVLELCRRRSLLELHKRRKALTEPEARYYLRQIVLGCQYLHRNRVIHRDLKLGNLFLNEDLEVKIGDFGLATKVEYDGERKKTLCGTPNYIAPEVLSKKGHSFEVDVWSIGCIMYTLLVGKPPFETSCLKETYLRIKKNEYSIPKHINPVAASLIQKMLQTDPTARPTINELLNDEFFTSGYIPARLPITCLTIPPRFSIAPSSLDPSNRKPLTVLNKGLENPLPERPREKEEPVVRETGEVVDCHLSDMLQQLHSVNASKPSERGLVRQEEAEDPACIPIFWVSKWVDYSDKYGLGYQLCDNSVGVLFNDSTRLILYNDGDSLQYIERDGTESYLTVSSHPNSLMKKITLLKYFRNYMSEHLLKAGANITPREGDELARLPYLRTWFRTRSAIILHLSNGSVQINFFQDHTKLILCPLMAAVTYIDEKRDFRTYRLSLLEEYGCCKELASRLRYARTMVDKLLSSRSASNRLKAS

In the case of `COc1cc(C(=O)NCCCOCCCOCCNc2cccc3c2CN(C2CCC(=O)NC2=O)C3=O)ccc1Nc1ncc2c(n1)N(C1CCCC1)CC(F)(F)C(=O)N2C` (centres unmarked) [Example 171, 4-((9-cyclopentyl-7,7-difluoro-5-methyl-6-oxo-6,7,8,9-tetrahydro-5H-pyrimido[4,5-b][1,4]diazepin-2-yl)amino)-N-(3-(3-(2-((2-(2,6-dioxopiperidin-3-yl)-1-oxoisoindolin-4-yl)amino)ethoxy)propoxy)propyl)-3-methoxybenzamide], the Dmax is reported as at least 80%.

Work on `COc1cc(C(=O)NC2CCN(CCCCNc3cccc4c3C(=O)N(C3CCC(=O)NC3=O)C4=O)CC2)c(F)cc1Nc1ncc2c(n1)N(C1CCCC1)CC(F)(F)C(=O)N2C` (centres unmarked) [Compound 8, 4-((9-cyclopentyl-7,7-difluoro-5-methyl-6-oxo-6,7,8,9-tetrahydro-5H-pyrimido[4,5-b][1,4]diazepin-2-yl)amino)-N-(1-(4-((2-(2,6-dioxopiperidin-3-yl)-1,3-dioxoisoindolin-4-yl)amino)butyl)piperidin-4-yl)-2-fluoro-5-methoxybenzamide] yielded a Dmax of under 60%.

In the case of `COc1cc(C(=O)NC2CCN(CCCCCCCCCCNc3cccc4c3C(=O)N(C3CCC(=O)NC3=O)C4=O)CC2)c(F)cc1Nc1ncc2c(n1)N(C1CCCC1)CC(F)(F)C(=O)N2C` (centres unmarked) [Compound 14, 4-((9-cyclopentyl-7,7-difluoro-5-methyl-6-oxo-6,7,8,9-tetrahydro-5H-pyrimido[4,5-b][1,4]diazepin-2-yl)amino)-N-(1-(10-((2-(2,6-dioxopiperidin-3-yl)-1,3-dioxoisoindolin-4-yl)amino)decyl)piperidin-4-yl)-2-fluoro-5-methoxybenzamide], the Dmax is reported as under 60%.

`COc1cc(C(=O)NC2CCN(C[C@@H]3C[C@@H]3CNc3cccc4c3C(=O)N(C3CCC(=O)NC3=O)C4=O)CC2)c(F)cc1Nc1ncc2c(n1)N(C1CCCC1)CC(F)(F)C(=O)N2C` (stereo partly drawn) [Compound 48, 4-((9-cyclopentyl-7,7-difluoro-5-methyl-6-oxo-6,7,8,9-tetrahydro-5H-pyrimido[4,5-b][1,4]diazepin-2-yl)amino)-N-(1-(((1R,2S)-2-(((2-(2,6-dioxopiperidin-3-yl)-1,3-dioxoisoindolin-4-yl)amino)methyl)cyclopropyl)methyl)piperidin-4-yl)-2-fluoro-5-methoxybenzamide] showed a DC50 of at most 500 nM and a Dmax of 60 to 80%.

`COc1cc(C(=O)NC2CCN(CCCC(=O)Nc3cccc4c3C(=O)N(C3CCC(=O)NC3=O)C4=O)CC2)c(F)cc1Nc1ncc2c(n1)N(C1CCCC1)CC(F)(F)C(=O)N2C` (centres unmarked) [Compound 37, 4-((9-cyclopentyl-7,7-difluoro-5-methyl-6-oxo-6,7,8,9-tetrahydro-5H-pyrimido[4,5-b][1,4]diazepin-2-yl)amino)-N-(1-(4-((2-(2,6-dioxopiperidin-3-yl)-1,3-dioxoisoindolin-4-yl)amino)-4-oxobutyl)piperidin-4-yl)-2-fluoro-5-methoxybenzamide] showed a DC50 of at most 500 nM and a Dmax of 60 to 80%.

Molecule `COc1cc(C(=O)NCC2CCCN(CCOCCNc3cccc4c3C(=O)N(C3CCC(=O)NC3=O)C4=O)C2)c(F)cc1Nc1ncc2c(n1)N(C1CCCC1)CC(F)(F)C(=O)N2C` (centres unmarked) [Compound 125, 4-((9-cyclopentyl-7,7-difluoro-5-methyl-6-oxo-6,7,8,9-tetrahydro-5H-pyrimido[4,5-b][1,4]diazepin-2-yl)amino)-N-((1-(2-(2-((2-(2,6-dioxopiperidin-3-yl)-1,3-dioxoisoindolin-4-yl)amino)ethoxy)ethyl)piperidin-3-yl)methyl)-2-fluoro-5-methoxybenzamide] has a DC50 of at most 50 nM and a Dmax of at least 80%.

For `COc1cc(C(=O)NC2CCN(Cc3cccc(CNC(=O)COc4cccc5c4C(=O)N(C4CCC(=O)NC4=O)C5=O)c3)CC2)c(F)cc1Nc1ncc2c(n1)N(C1CCCC1)CC(F)(F)C(=O)N2C` (centres unmarked) [Compound 61, 4-((9-cyclopentyl-7,7-difluoro-5-methyl-6-oxo-6,7,8,9-tetrahydro-5H-pyrimido[4,5-b][1,4]diazepin-2-yl)amino)-N-(1-(3-((2-((2-(2,6-dioxopiperidin-3-yl)-1,3-dioxoisoindolin-4-yl)oxy)acetamido)methyl)benzyl)piperidin-4-yl)-2-fluoro-5-methoxybenzamide], the DC50 was at most 50 nM and the Dmax was 60 to 80%.

`COc1cc(C(=O)N[C@@H]2CCN(C(=O)CCCN3CCN(c4ccc5c(c4)C(=O)N(C4CCC(=O)NC4=O)C5=O)CC3)C2)c(F)cc1Nc1ncc2c(n1)N(C1CCCC1)CC(F)(F)C(=O)N2C` (stereo partly drawn) [Compound 138, 4-((9-cyclopentyl-7,7-difluoro-5-methyl-6-oxo-6,7,8,9-tetrahydro-5H-pyrimido[4,5-b][1,4]diazepin-2-yl)amino)-N-((3R)-1-(4-(4-(2-(2,6-dioxopiperidin-3-yl)-1,3-dioxoisoindolin-5-yl)piperazin-1-yl)butanoyl)pyrrolidin-3-yl)-2-fluoro-5-methoxybenzamide] was tested, and the DC50 was at most 50 nM and the Dmax was at least 80%.

In the case of `CC(C)Oc1cc(C(=O)NC2CCN(CCOCCOCCNc3cccc4c3C(=O)N(C3CCC(=O)NC3=O)C4=O)CC2)c(F)cc1Nc1ncc2c(n1)N(C1CCCC1)CC(F)(F)C(=O)N2C` (centres unmarked) [Example 91, 4-((9-cyclopentyl-7,7-difluoro-5-methyl-6-oxo-6,7,8,9-tetrahydro-5H-pyrimido[4,5-b][1,4]diazepin-2-yl)amino)-N-(1-(2-(2-(2-((2-(2,6-dioxopiperidin-3-yl)-1,3-dioxoisoindolin-4-yl)amino)ethoxy)ethoxy)ethyl)piperidin-4-yl)-2-fluoro-5-isopropoxybenzamide], the DC50 is reported as at most 500 nM and the Dmax is reported as 60 to 80%.

`COc1cc(C(=O)NC2CCN(CCOCCOCCOCCOCC#Cc3cccc4c3C(=O)N(C3CCC(=O)NC3=O)C4=O)CC2)c(F)cc1Nc1ncc2c(n1)N(C1CCCC1)CC(F)(F)C(=O)N2C` (centres unmarked) [Compound 52, 4-((9-cyclopentyl-7,7-difluoro-5-methyl-6-oxo-6,7,8,9-tetrahydro-5H-pyrimido[4,5-b][1,4]diazepin-2-yl)amino)-N-(1-(15-(2-(2,6-dioxopiperidin-3-yl)-1,3-dioxoisoindolin-4-yl)-3,6,9,12-tetraoxapentadec-14-yn-1-yl)piperidin-4-yl)-2-fluoro-5-methoxybenzamide] showed a DC50 of at most 50 nM and a Dmax of at least 80%.
